Source: PubChem BioAssay AID330 (DTP/NCI, 2004)
“And” between values parts separate entries of the source, which are not always exact repeats. Equal values may be shown once. Inconclusive results and toxic doses are left out. The calls were made as follows: active = survival T/C of 150% or more; inactive = T/C below 125% in these data.

System: P388 leukemia ip, CD2F1 mice, survival T/C
Assay: NCI In Vivo Anticancer Drug Screen. Data for tumor model P388 Leukemia (intraperitoneal) in CD2F1 (CDF1) mice
Details: endpoint: median survival time, higher = longer survival
Method in brief: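 Mice carrying the transplanted tumor received test compound or vehicle. Survival was recorded in each group, and the value is the treated-group measurement divided by that of the vehicle-treated control group.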

[1] = dose: 12.5 mg/kg/injection, schedule: Q01DX009 (ip), vehicle: saline
[2] = dose: 25.0 mg/kg/injection, schedule: Q01DX009 (ip), vehicle: saline
[3] = dose: 50.0 mg/kg/injection, schedule: Q01DX009 (ip), vehicle: saline with Tween-80
[4] = dose: 50.0 mg/kg/injection, schedule: Q01DX005 (ip), vehicle: saline with Tween-80
[5] = dose: 100.0 mg/kg/injection, schedule: Q01DX005 (ip), vehicle: saline with Tween-80
[6] = dose: 200.0 mg/kg/injection, schedule: Q01DX005 (ip), vehicle: saline with Tween-80
[7] = dose: 100.0 mg/kg/injection, schedule: Q01DX001 (ip), vehicle: Klucel (hydroxypropylcellulose) (HPC)
[8] = dose: 60.0 mg/kg/injection, schedule: Q01DX005 (ip), vehicle: saline with Tween-80
[9] = dose: 120.0 mg/kg/injection, schedule: Q01DX005 (ip), vehicle: saline with Tween-80
[10] = dose: 50.0 mg/kg/injection, schedule: Q01DX001 (ip), vehicle: Klucel (hydroxypropylcellulose) (HPC)
[11] = dose: 50.0 mg/kg/injection, schedule: Q01DX009 (ip), vehicle: suspension in saline
[12] = dose: 100.0 mg/kg/injection, schedule: Q01DX009 (ip), vehicle: suspension in saline
[13] = dose: 200.0 mg/kg/injection, schedule: Q01DX009 (ip), vehicle: suspension in saline

Measured: T/C

Cc1nc2c([N+](=O)[O-])c(N3CCOCC3)c([N+](=O)[O-])cc2[nH]1
inactive: dose: 100.0 mg/kg/injection, schedule: Q04DX003 (ip), vehicle: saline with Tween-80 98 % of control | dose: 200.0 mg/kg/injection, schedule: Q04DX003 (ip), vehicle: saline with Tween-80 103 % of control | dose: 400.0 mg/kg/injection, schedule: Q04DX003 (ip), vehicle: saline with Tween-80 101 % of control

CC[n+]1cccc(C(=O)c2ccccc2)c1
inactive: dose: 3.75 mg/kg/injection, schedule: Q01DX005 (ip), vehicle: saline 103 % of control | dose: 7.5 mg/kg/injection, schedule: Q01DX005 (ip), vehicle: saline 97 % of control | dose: 15.0 mg/kg/injection, schedule: Q01DX005 (ip), vehicle: saline 102 % of control | dose: 30.0 mg/kg/injection, schedule: Q01DX005 (ip), vehicle: saline 105 % of control

N#CC(C#N)C1C=C/C(=N\O)C1 (centres undefined)
inactive: [1] 99 % of control | [2] 101 % of control | [3] 109 % of control | dose: 50.0 mg/kg/injection, schedule: Q01DX009 (ip), vehicle: saline 102 % of control

Nc1ccc(C2NC(=O)Cc3c2ccc2ccccc32)cc1 (centres undefined)
inactive: dose: 60.0 mg/kg/injection, schedule: Q01DX005 (ip), vehicle: Klucel (hydroxypropylcellulose) (HPC) 95 % of control | dose: 120.0 mg/kg/injection, schedule: Q01DX005 (ip), vehicle: Klucel (hydroxypropylcellulose) (HPC) 94 % of control | dose: 240.0 mg/kg/injection, schedule: Q01DX005 (ip), vehicle: Klucel (hydroxypropylcellulose) (HPC) 95 % of control

CCCCC1(Cc2ccccc2)SC(=O)NC1=O (centres undefined)
inactive: [4] 98 % of control | [5] 100 % of control | [6] 91 % of control

OC(c1ccccc1)(C1CCNCC1)C1CC1 (centres undefined)
inactive: dose: 12.5 mg/kg/injection, schedule: Q01DX001 (ip), vehicle: saline 105 % of control | dose: 25.0 mg/kg/injection, schedule: Q01DX001 (ip), vehicle: saline 101 % of control and 97 % of control | dose: 50.0 mg/kg/injection, schedule: Q01DX001 (ip), vehicle: saline 103 % of control and 106 % of control | [7] 105 % of control | dose: 100.0 mg/kg/injection, schedule: Q01DX001 (ip), vehicle: saline 102 % of control

CCCCCCCC1SC(=S)NC1=O (centres undefined)
inactive: dose: 6.25 mg/kg/injection, schedule: Q04DX003 (ip), vehicle: other 109 % of control | dose: 12.5 mg/kg/injection, schedule: Q04DX003 (ip), vehicle: other 101 % of control | dose: 25.0 mg/kg/injection, schedule: Q04DX003 (ip), vehicle: other 108 % of control | dose: 50.0 mg/kg/injection, schedule: Q04DX003 (ip), vehicle: other 108 % of control | dose: 100.0 mg/kg/injection, schedule: Q04DX003 (ip), vehicle: other 101 % of control

C[n+]1c(-c2ccc(/C=N/NC(=O)c3cc(O)c(C(=O)N/N=C/c4ccc(-c5cn6ccccc6[n+]5C)cc4)cc3O)cc2)cn2ccccc21
inactive: [8] 105 % of control | [9] 105 % of control

COc1cc(C2c3cc(OS(=O)(=O)c4ccc(C)cc4)c(OC)cc3CC3C(=O)OCC32)ccc1OS(=O)(=O)c1ccc(C)cc1 (centres undefined)
inactive: [4] 91 % of control and 92 % of control | [5] 91 % of control | [6] 91 % of control

CCCCc1noc(N)c1SCC
inactive: [4] 105 % of control | [5] 103 % of control | [6] 107 % of control

Cc1ccc(S(=O)(=O)N2CCCC2C(=O)NNC(N)=S)cc1 (centres undefined)
inactive: dose: 50.0 mg/kg/injection, schedule: Q01DX005 (ip), vehicle: Klucel (hydroxypropylcellulose) (HPC) 99 % of control | dose: 100.0 mg/kg/injection, schedule: Q01DX005 (ip), vehicle: Klucel (hydroxypropylcellulose) (HPC) 89 % of control | dose: 200.0 mg/kg/injection, schedule: Q01DX005 (ip), vehicle: Klucel (hydroxypropylcellulose) (HPC) 91 % of control

Cc1cn(C)c2c1-c1[nH]ncc1CC2
inactive: dose: 50.0 mg/kg/injection, schedule: Q04DX003 (ip), vehicle: Klucel (hydroxypropylcellulose) (HPC) 100 % of control | dose: 100.0 mg/kg/injection, schedule: Q04DX003 (ip), vehicle: Klucel (hydroxypropylcellulose) (HPC) 99 % of control | dose: 200.0 mg/kg/injection, schedule: Q04DX003 (ip), vehicle: Klucel (hydroxypropylcellulose) (HPC) 103 % of control

CN(C)c1cc(C(=O)O)nc(C(=O)O)c1
inactive: dose: 25.0 mg/kg/injection, schedule: Q01DX001 (ip), vehicle: Klucel (hydroxypropylcellulose) (HPC) 101 % of control | [10] 107 % of control | [7] 107 % of control and 87 % of control

CCOP(=O)(O)OCC.[Ga]
inactive: dose: 100.0 mg/kg/injection, schedule: Q04DX002 (ip), vehicle: saline with Tween-80 106 % of control | dose: 200.0 mg/kg/injection, schedule: Q04DX002 (ip), vehicle: saline with Tween-80 103 % of control | dose: 400.0 mg/kg/injection, schedule: Q04DX002 (ip), vehicle: saline with Tween-80 97 % of control

CCCCCC(C)N (centres undefined)
inactive: [1] 95 % of control | [2] 90 % of control

CCCC1C(=O)N2C(N(C)C)=Nc3ccc(C)cc3N2C1=O (centres undefined)
inactive: [11] 101 % of control | [12] 104 % of control | [13] 106 % of control | dose: 400.0 mg/kg/injection, schedule: Q01DX009 (ip), vehicle: suspension in saline 97 % of control

Cc1nc2n(c1/C=N/O)CCS2
inactive: [10] 90 % of control | [7] 99 % of control | dose: 200.0 mg/kg/injection, schedule: Q01DX001 (ip), vehicle: Klucel (hydroxypropylcellulose) (HPC) 93 % of control

CCN(CC)CCCC(C)n1c2nc(=O)[nH]c(=O)c-2nc2cc(Cl)ccc21 (centres undefined)
inactive: dose: 12.5 mg/kg/injection, schedule: Q01DX005 (ip), vehicle: saline 98 % of control | dose: 25.0 mg/kg/injection, schedule: Q01DX005 (ip), vehicle: saline 104 % of control | dose: 50.0 mg/kg/injection, schedule: Q01DX005 (ip), vehicle: saline 117 % of control and 119 % of control

CCOC(=O)CCC1(C)Sc2ccccc2N1C (centres undefined)
inactive: [8] 107 % of control | [9] 110 % of control | dose: 240.0 mg/kg/injection, schedule: Q01DX005 (ip), vehicle: saline with Tween-80 107 % of control

CC(C)CN=C(N)Nc1cccc(NC(=O)Nc2ccc(Cl)cc2)c1
inactive: dose: 12.5 mg/kg/injection, schedule: Q01DX009 (ip), vehicle: saline with Tween-80 92 % of control | dose: 25.0 mg/kg/injection, schedule: Q01DX009 (ip), vehicle: saline with Tween-80 86 % of control | [3] 109 % of control and 91 % of control

S=C(Nc1ccc(N=Nc2ccccc2)cc1)SCc1ccc2c(c1)OCO2
inactive: [11] 96 % of control | [12] 90 % of control | [13] 92 % of control

COc1ccc(CCN(C)CCCC(C#N)(c2ccc(OC)c(OC)c2)C(C)C)cc1OC (centres undefined)
inactive: dose: 1.0 mg/kg/injection, schedule: Q02HX018 (sc), vehicle: water 99 % of control | dose: 2.0 mg/kg/injection, schedule: Q02HX018 (sc), vehicle: water 99 % of control | dose: 4.0 mg/kg/injection, schedule: Q02HX006 (sc), vehicle: saline with Tween-80 100 % of control | dose: 4.0 mg/kg/injection, schedule: Q02HX018 (sc), vehicle: water 103 % of control | dose: 8.0 mg/kg/injection, schedule: Q02HX006 (sc), vehicle: saline with Tween-80 96 % of control | dose: 8.0 mg/kg/injection, schedule: Q02HX018 (sc), vehicle: water 110 % of control | dose: 8.0 mg/kg/injection, schedule: Q03HX006 (ip), vehicle: saline 104 % of control | dose: 16.0 mg/kg/injection, schedule: Q02HX006 (sc), vehicle: saline with Tween-80 106 % of control | dose: 16.0 mg/kg/injection, schedule: Q02HX018 (sc), vehicle: water 108 % of control | dose: 16.0 mg/kg/injection, schedule: Q03HX006 (ip), vehicle: saline 101 % of control | dose: 32.0 mg/kg/injection, schedule: Q02HX006 (sc), vehicle: saline with Tween-80 82 % of control | dose: 32.0 mg/kg/injection, schedule: Q03HX006 (ip), vehicle: saline 103 % of control | dose: 64.0 mg/kg/injection, schedule: Q02HX006 (sc), vehicle: saline with Tween-80 19 % of control

Cc1c(COC(=O)NC2CCCCC2)c(COC(=O)NC2CCCCC2)c2n1CCc1ccccc1-2
inactive: dose: 50.0 mg/kg/injection, schedule: Q01DX009 (ip), vehicle: distilled water + Tween-80 101 % of control
active: dose: 12.5 mg/kg/injection, schedule: Q01DX009 (ip), vehicle: distilled water + Tween-80 178 % of control | dose: 25.0 mg/kg/injection, schedule: Q01DX009 (ip), vehicle: distilled water + Tween-80 182 % of control
